For two molecules, anticonvulsant activity, ED50 and melting point results are on record in patent publication US20120071471A1, “NOVEL BENZOXAZINONE DERIVATIVES USEFUL FOR THE TREATMENT OF CNS DISORDERS” (NEUROSEARCH A/S, priority 2009, published 2012).

The conditions of series [1]: De Marchi et al., Journal of Pharmaceutical Sciences 1971 60 (11); cited from earlier work.
In series [2] the test system is female NMRI mice. Briefly: 6 Hz corneal stimulation psychomotor seizure model (anticonvulsant properties). The settings on record: Mus musculus, 32 mA, 3 s corneal stimulation, N=8/group, read-out: ED50 (dose that would give a 50% protection from seizures). The format is in vivo. As for the experimental part: The evaluation of the anticonvulsant properties was carried out in female NMRI mice (20-25 g, Taconic, Denmark). The mice were housed in groups (8 per cage according to weight) with food and water available ad libitum The environment was temperature (20±2° C.) and humidity (55±15%) controlled, and consisted of a 12:12 h light-dark cycle (lights on 06:00 h). The experiments were performed according to the Danish Committee for Experiments on Animals. Psychomotor seizures were induced via corneal stimulation (6 Hz, 0.2 ms rectangular pulses at 32 mA for 3 s) using a Grass S48 stimulator, constant current unit (CCU1) and isolation unit (SIU5), all driven by a stimulus generator (Master-8, AMPI, Israel).
The pads of the corneal stimulator were soaked in 0.9% saline. The mice were restrained during corneal stimulation and released immediately after and observed for the presence or absence of seizure activity.
The duration of any of these seizure variables is 10-75 seconds. In the presence of any of the seizure variables the mice was labelled 0% protection, and if none of the above, the mice was labelled 100% protection.
For screening purposes, the test compound was tested at 1 dose at 1 time-point. In the case of protection of 3 or more out of 8 mice, the compound were further evaluated in dose response (N=8/group). […]

SMILES strings stand for the structures.

In the case of `NC(=O)CN1C(=O)OCc2ccccc21` [2-(2-oxo-4H-benzo[d][1,3]oxazin-1-yl)-acetamide], the anticonvulsant activity result in series [1] is “biologically inactive”. `NC(=O)CN1C(=O)OCc2cc(Br)ccc21` [Compound 1, 2-(6-bromo-2-oxo-4H-3,1-benzoxazin-1-yl)acetamide] had a melting point of 253.4 to 254.3 °C. Further, the ED50 in series [2] came out at 13 mg/kg.

What is called ED50 is the dose at which the effect has come halfway, by size or by number of responders. What is called melting point is the temperature, or range, at which the solid turns liquid.
